From US20200288710A1, “SUBSTITUTED SULPHONAMIDES FOR CONTROLLING ANIMAL PESTS” (BAYER CROPSCIENCE AKTIENGESELLSCHAFT, priority 2016, published 2020)

Columns and labels:
Format in all cases: in vivo
[1] = test system: Myzus persicae; assay: Myzus persicae oral test; conditions: 120 h, oral uptake, after 5 days, read-out: efficacy
Summary of the method: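 Aphids of mixed ages imbibe, through parafilm, compound solution (acetone stock, water-diluted) combined with sugar-supplemented IPL41 medium to 200 μl. Efficacy read at day 5 as percent killed, 0% meaning no deaths.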

[2] = test system: Phaedon cochleariae; assay: Phaedon cochleariae spray test; conditions: foliar, 168 h, Chinese cabbage leaf discs, larvae, after 7 days, read-out: efficacy
Protocol: Phaedon cochleariae—Spray Test
To produce a suitable preparation of active compound, 1 part by weight of active compound is dissolved using the specified parts by weight of solvent and made up with water containing an emulsifier concentration of 1000 ppm until the desired concentration is attained. To produce further test concentrations, the formulation is diluted with emulsifier-containing water.
After 7 days, the efficacy in % is determined. 100% means that all the beetle larvae have been killed; 0% means that no beetle larvae have been killed.

[3] = test system: Meloidogyne incognita; assay: Meloidogyne incognita test; conditions: 336 h, lettuce, after 14 days, read-out: nematicidal efficacy (formation of galls)
Summary of the method: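 Gall formation on lettuce roots scored after 14 days: 0% means gall count equals untreated control, 100% means none. Sand vessels held the compound (acetone concentrate diluted in water), southern root-knot nematode egg/larvae suspension and lettuce seeds.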

[4] = test system: Myzus persicae; assay: Myzus persicae spray test (Chinese cabbage leaf discs); conditions: foliar, 120 h, 500 g/ha, after 5-6 days, read-out: efficacy
Summary of the method: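 Formulated compound in acetone/dimethylformamide, diluted in water with 1000 ppm emulsifier, was sprayed onto Brassica pekinensis leaf discs carrying mixed-stage Myzus persicae. Percent mortality was read 5-6 days later (0% = no aphids killed, 100% = all killed).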

| SMILES | pest or weed control at 20 ppm [1] [%] | pest or weed control at 500 g/ha [2] [%] | pest or weed control at 20 ppm [3] [%] | pest or weed control at 500 g/ha [4] [%] | pest or weed control at 4 ppm [1] [%] |
| --- | --- | --- | --- | --- | --- |
| Cc1c(Cl)cccc1S(=O)(=O)NC(=O)c1cn(C)c(-c2c(F)cccc2F)n1 [Example 316] | 100 | 100 | 90 | 90 | – |
| Cc1ccc(F)cc1S(=O)(=O)NC(=O)c1cn(C)c(-c2cccc(Cl)c2Cl)n1 [Example 319] | 100 | 100 | 90 | 100 | – |
| Cc1c(S(=O)(=O)NC(=O)c2cn(C)c(-c3c(F)cccc3F)n2)sc2ccc(Cl)cc12 [Example 324] | 100 | 100 | 90 | 100 | – |
| CCc1cccc(F)c1S(=O)(=O)NC(=O)c1cn(C)c(-c2c(F)cccc2F)n1 [Example 338] | 100 | 100 | 100 | 90 | – |
| CCc1cccc(OC(F)F)c1S(=O)(=O)NC(=O)c1cn(C)c(-c2c(F)cccc2F)n1 [Example 339] | 100 | 100 | 100 | 90 | – |
| Cc1cccc(F)c1S(=O)(=O)NC(=O)c1cn(C)c(-c2c(F)cccc2F)n1 [Example 363] | 100 | 100 | 90 | 100 | – |
| Cc1cccc(C(F)(F)F)c1S(=O)(=O)NC(=O)c1cn(C)c(-c2c(F)cccc2F)n1 [Example 369] | 100 | 100 | 90 | 100 | – |
| Cn1cc(C(=O)NS(=O)(=O)c2c(Br)cccc2C(F)(F)F)nc1-c1c(F)cccc1F [Example 373] | 100 | 100 | 90 | 100 | – |
| CSc1cccc(Cl)c1S(=O)(=O)NC(=O)c1cn(C)c(-c2c(F)cccc2F)n1 [Example 385] | 100 | 100 | 90 | 100 | – |
| Cc1ccc(Br)cc1S(=O)(=O)NC(=O)c1cn(C)c(-c2c(F)cccc2F)n1 [Example 398] | 100 | 100 | 90 | 90 | – |
| Cc1ccc(C(F)(F)F)cc1S(=O)(=O)NC(=O)c1cn(C)c(-c2c(F)cccc2F)n1 [Example 399] | 100 | 100 | 90 | 100 | – |
| COc1ccc(Br)c(S(=O)(=O)NC(=O)c2cn(C)c(-c3ccccc3Cl)n2)c1 [Example 420] | 100 | 83 | 90 | 100 | – |
| CSc1ccccc1S(=O)(=O)NC(=O)c1cn(C)c(-c2ccccc2Cl)n1 [Example 423] | 100 | 100 | 90 | 100 | – |
| COc1ccc(C)c(S(=O)(=O)NC(=O)c2cn(C)c(-c3ccccc3Cl)n2)c1 [Example 424] | 100 | 100 | 90 | 90 | – |
| Cc1ccc(F)cc1S(=O)(=O)NC(=O)c1cn(C)c(-c2ccccc2Cl)n1 [Example 425] | 100 | 100 | 90 | 100 | – |
| Cn1cc(C(=O)NS(=O)(=O)c2ccccc2I)nc1-c1ccccc1Cl [Example 428] | 100 | 100 | 90 | 100 | – |
| Cn1cc(C(=O)NS(=O)(=O)c2cc(Br)ccc2Br)nc1-c1ccccc1Cl [Example 429] | 100 | 100 | 100 | 90 | – |
| Cc1ccc(Cl)c(S(=O)(=O)NC(=O)c2cn(C)c(-c3c(F)cccc3F)n2)c1Cl [Example 434] | 100 | 100 | 100 | 100 | – |
| Cc1cc(C)c(S(=O)(=O)NC(=O)c2cn(C)c(-c3c(F)cccc3F)n2)c(C)c1 [Example 436] | 100 | 100 | 90 | 90 | – |

| SMILES | pest or weed control at 20 ppm [1] [%] | pest or weed control at 500 g/ha [2] [%] | pest or weed control at 20 ppm [3] [%] | pest or weed control at 500 g/ha [4] [%] | pest or weed control at 4 ppm [1] [%] |
| --- | --- | --- | --- | --- | --- |
| Cn1cc(C(=O)NS(=O)(=O)c2ccc(Cl)cc2I)nc1-c1c(F)cccc1F [Example 439] | 100 | 100 | 90 | 90 | – |
| Cc1cc(Cl)ccc1S(=O)(=O)NC(=O)c1cn(C)c(-c2c(F)cccc2F)n1 [Example 445] | 90 | 100 | 100 | 100 | – |
| Cc1cc(Br)ccc1S(=O)(=O)NC(=O)c1cn(C)c(-c2c(F)cccc2F)n1 [Example 446] | 100 | 100 | 90 | 90 | – |
| Cn1cc(C(=O)NS(=O)(=O)c2ccc(F)cc2C(F)(F)F)nc1-c1c(F)cccc1F [Example 448] | 100 | 100 | 90 | 100 | – |
| Cn1cc(C(=O)NS(=O)(=O)c2ccc(Br)cc2C(F)(F)F)nc1-c1c(F)cccc1F [Example 449] | 100 | 100 | 100 | 100 | – |
| Cc1ccc(S(=O)(=O)NC(=O)c2cn(C)c(-c3c(F)cccc3F)n2)c(Cl)c1 [Example 450] | 90 | 100 | 100 | 100 | – |
| Cn1cc(C(=O)NS(=O)(=O)c2cccc3ccccc23)nc1-c1c(F)cccc1F [Example 510] | 100 | 100 | 90 | 100 | – |
| Cc1ccccc1S(=O)(=O)NC(=O)c1cn(C)c(-c2cc(Cl)ccc2Cl)n1 [Example 517] | 100 | 100 | 100 | 90 | – |
| Cc1ccccc1S(=O)(=O)NC(=O)c1cn(C)c(-c2sccc2Cl)n1 [Example 548] | 90 | 83 | 90 | 90 | – |
| Cc1cccc(Cl)c1S(=O)(=O)NC(=O)c1cn(C)c(-c2cccc(Cl)c2Cl)n1 [Example 556] | 100 | 100 | 90 | 90 | – |
| Cc1cccc(C(F)(F)F)c1S(=O)(=O)NC(=O)c1cn(C)c(-c2cccc(Cl)c2Cl)n1 [Example 561] | 100 | 100 | 100 | 90 | – |
| COc1ccc(Cl)c(S(=O)(=O)NC(=O)c2cn(C)c(-c3ncccc3Cl)n2)c1 [Example 575] | 100 | 83 | 90 | 90 | – |
| Cc1ccccc1S(=O)(=O)NC(=O)c1cn(C)c(-c2ncccc2Br)n1 [Example 579] | 100 | 100 | 90 | 100 | – |
| CCc1ccccc1S(=O)(=O)NC(=O)c1cn(C)c(-c2ncccc2Cl)n1 [Example 581] | – | 100 | 100 | 100 | 100 |
| CCc1ccc(Cl)cc1S(=O)(=O)NC(=O)c1cn(C)c(-c2ncccc2Cl)n1 [Example 583] | 100 | 100 | 90 | 100 | – |
| Cc1cccc(C(F)(F)F)c1S(=O)(=O)NC(=O)c1cn(C)c(-c2ncccc2Cl)n1 [Example 586] | – | 100 | 90 | 100 | 100 |
| Cc1cccc(C)c1S(=O)(=O)NC(=O)c1cn(C)c(-c2ncccc2Cl)n1 [Example 587] | 100 | 100 | 90 | 90 | – |
| COc1ccc(Br)c(S(=O)(=O)NC(=O)c2cn(C)c(-c3ncccc3Cl)n2)c1 [Example 597] | 100 | 100 | 90 | 100 | – |
